How the values were obtained:
[1] = tested on: human pancreatic ductal tissue cultures; experiment: Insulin production by ELISA, human ductal tissue cultures (Example 3); type: cell-based
Protocol: Samples are 5 μg total protein in duplicate and measured by ELISA assay.
(§1) Values are mean insulin units (of duplicate samples) as measured by ELISA assay.
(§2) Human pancreatic tissue was treated as described in Example 1 and Insulin production was measured by ELISA assay. FIGS. 5 and 6 show the results of this experiment to show a dose response and to again compare the effect of HIP2 on the two different fractions of tissue as compared to the hamster INGAP sequence and a scrambled negative peptide sequence. […] The results in FIG. 5 were generated using 5 μg of each peptide, while the results in FIG. 6 were acquired using 0.002 μg of each peptide.

[2] = tested on: human pancreatic islet tissue cultures; experiment: Insulin production by ELISA, human islet tissue cultures (Example 3); type: cell-based; settings: vs SEQ ID NO:1 and SEQ ID NO:5
Protocol: Samples are 0.002 μg total protein in duplicate and measured by ELISA assay.
as §1, §2

For “HIP2: Human proIslet Peptide, fragment of human REG3A, in purified, synthetic, or recombinant form (SEQ ID NO:4) (IGLHDPTQGTEPNG; Fragment of naturally occurring human REG3 protein)”, the “effect of the higher concentration on insulin production” value ([1]; ductal cultures) was “more profound effect”, the “insulin production (FIG. 5)” value ([1]; ductal cultures, after 10 days, Rosenberg protocol, 5 μg, vs SEQ ID NO:1 and SEQ ID NO:5) was “increased insulin production” and the “insulin production (FIG. 8B)” value ([1]; ductal cultures, two concentrations (3 μM and 1 mM), vs SEQ ID NO:1 and SEQ ID NO:5) was “increased insulin production”. The “induction of insulin production compared with INGAP or scrambled peptide” value ([1]; in each of the examples (ductal and islet fractions)) was “more effectively”, the “insulin production (FIG. 6)” value ([2]; after 10 days, Rosenberg protocol, 0.002 μg) was “increased insulin production” and the “insulin production (FIG. 8A)” value ([2]; two concentrations (3 μM and 1 mM)) was “increased insulin production”.

From patent US8785400B2, “Methods and compositions relating to islet cell neogenesis” (CureDM Group Holdings, LLC, priority 2006, dated 2014)
